Experimental data: patent publication US12344610B2, “APOL1 inhibitors and methods of use” (Maze Therapeutics, Inc., priority 2022, dated 2025)

System: HEK293 clonal cell line overexpressing APOL1 G1
Test: APOL1 G1 HEK293 cell rescue assay (Example B3)
Assay type: cell-based
Conditions: HEK293 clonal line overexpressing APOL1 G1; geometric mean of at least 2 runs; † = single run; ¥ = concentration at 50% rescue estimated (no sigmoidal curve)
How it was run: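 Rescue of cell death caused by APOL1 G1 overexpression was measured in a clonal HEK293 line. Compounds were tested in duplicate on one plate, and EC50s were geometric means across at least two runs on different days. Some values are estimated 50%-rescue concentrations where curve fitting failed.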

Compound	EC50
CC(COc1ccc2c(c1)CCC(=O)N2C)N1CCC2(CC1)C(=O)Nc1ccc(C#N)cc12 (single isomer, unassigned) [Compound 203, (S) or (R)-1′-{1-[(1-methyl-2-oxo-1,2,3,4-tetrahydroquinolin-6-yl)oxy]propan-2-yl}-2-oxo-1,2-dihydrospiro[indole-3,4′-piperidine]-5-carbonitrile]	457 nM
CS(=O)(=O)C1(c2ccc(OCCN3CCC4(CC3)C(=O)Nc3ccc(C(F)F)cc34)cc2)CC(O)C1 (single isomer, unassigned) [Compound 281, 5-(difluoromethyl)-1′-(2-{4-[(cis) or (trans)-3-hydroxy-1-methanesulfonylcyclobutyl]phenoxy}ethyl)-1,2-dihydrospiro[indole-3,4′-piperidin]-2-one]	164 nM
CS(=O)(=O)c1ccc(OCCN2CCC3(CC2)C(=O)Nc2ccc(C#N)cc23)cc1C(F)CF (single isomer, unassigned) [Compound 221, 1′-(2-{3-[(1S or 1R)-1,2-difluoroethyl]-4-methanesulfonyl-phenoxy}ethyl)-2-oxo-1,2-dihydrospiro [indole-3,4′-piperidine]-5-carbonitrile]	217 nM

Same assay, conditions: Homo sapiens, HEK293, HEK293 clonal line overexpressing APOL1 G1; geometric mean of at least 2 runs; † = single run; ¥ = concentration at 50% rescue estimated (no sigmoidal curve)

Compound	EC50
CNC(=O)C1(S(=O)(=O)c2ccc(OCCN3CCC4(CC3)C(=O)Nc3ccc(Cl)cc34)cc2)CC1 [Compound 226, 1-[4-(2-{5-chloro-2-oxo-1,2-dihydrospiro[indole-3,4′-piperidin]-1′-yl}ethoxy)benzenesulfonyl]-N-methylcyclopropane-1-carboxamide]	138 nM
C[C@@H](COc1ccc(S(C)(=O)=O)c(C(F)F)c1)N1CCC2(CC1)C(=O)Nc1ccc(C#N)cc12 (single isomer, unassigned) [Compound 212]	192 nM
O=C(c1ccc(OCCN2CCC3(CC2)C(=O)Nc2ccc(Cl)cc23)cc1F)N1CC(O)C1 [Compound 235, 5-chloro-1′-{2-[3-fluoro-4-(3-hydroxyazetidine-1-carbonyl)phenoxy]ethyl}-1,2-dihydrospiro[indole-3,4′-piperidin]-2-one]	268 nM
CS(=O)(=O)c1ccc(OCCN2CCC3(CC2)C(=O)N(CCO)c2ccc(Cl)cc23)cc1 [Compound 18, 5-chloro-1-(2-hydroxyethyl)-1′-[2-(4-methanesulfonylphenoxy)ethyl]-1,2-dihydrospiro[indole-3,4′-piperidin]-2-one]	663 nM
CS(=O)(=O)C1CN(c2ncc(OCCN3CCC4(CC3)C(=O)Nc3ccc(Cl)cc34)cn2)C1 [Compound 302, 5-chloro-1′-(2-{[2-(3-methanesulfonylazetidin-1-yl)pyrimidin-5-yl]oxy}ethyl)-1,2-dihydrospiro[indole-3,4′-piperidin]-2-one]	236 nM
CS(=O)(=O)c1ccc(OCCN2CCC3(CC2)C(=O)N(CCO)c2ccc(Cl)cc23)cc1C(F)F [Compound 265, 5-chloro-1′-{2-[3-(difluoromethyl)-4-methanesulfonylphenoxy]ethyl}-1-(2-hydroxyethyl)-1,2-dihydrospiro[indole-3,4′-piperidin]-2-one]	132 nM
O=C(c1ccc(OCCN2CCC3(CC2)C(=O)Nc2ccc(Cl)cc23)cc1F)N1CCOCC1 [Compound 231, 5-chloro-1′-{2-[3-fluoro-4-(morpholine-4-carbonyl)phenoxy]ethyl}-1,2-dihydrospiro[indole-3,4′-piperidin]-2-one]	169 nM
COCCN1C(=O)C2(CCN(CCOc3ccc(S(C)(=O)=O)cc3)CC2)c2cc(C#N)ccc21 [Compound 25, 1′-[2-(4-methanesulfonylphenoxy)ethyl]-1-(2-methoxyethyl)-2-oxo-1,2-dihydrospiro[indole-3,4′-piperidine]-5-carbonitrile]	~8300 nM
O=C1Nc2ccc(Cl)cc2C12CCN(CCOc1ccc(S(=O)(=O)CCO)cc1)CC2 [Compound 198, 5-chloro-1′-{2-[4-(2-hydroxyethanesulfonyl)phenoxy)ethyl}-1,2-dihydrospiro[indole-3,4′-piperidin]-2-one]	203 nM
O=C1Nc2ccc(Cl)cc2C12CCN(CCOc1ccc(S(=O)(=O)[C@H]3C[C@H](O)C3)cc1)CC2 [Compound 215, 5-chloro-1′-[2-(4-{[(trans)-3-hydroxycyclobutyl]sulfonyl}phenoxy)ethyl]-1,2-dihydrospiro[indole-3,4′-piperidin]-2-one]	122 nM
CS(=O)(=O)C1(c2ccc(OCCN3CCC4(CC3)C(=O)Nc3ccc(Cl)cc34)cc2)COC1 [Compound 195, 5-chloro-1′-{2-[4-(3-methanesulfonyloxetan-3-yl)phenoxy]ethyl}-1,2-dihydrospiro[indole-3,4′-piperidin]-2-one]	72 nM
O=C1Nc2ccc(Cl)cc2C12CCN(CCOc1ccc(S(=O)(=O)C3(C(=O)N4CCC4)CC3)cc1)CC2 [Compound 228, 1′-[2-(4-{[1-(azetidine-1-carbonyl)cyclopropyl]sulfonyl}phenoxy)ethyl]-5-chloro-1,2-dihydrospiro[indole-3,4′-piperidin]-2-one]	426 nM
O=C1CCc2cc(OCCN3CCC4(CC3)C(=O)Nc3ccc(Cl)cc34)ccc2N1[C@H]1C[C@H](O)C1 [Compound 224, 5-chloro-1′-[2-({2-oxo-1-[(trans)-3-hydroxycyclobutyl]-1,2,3,4-tetrahydroquinolin-6-yl}oxy)ethyl]-1,2-dihydrospiro[indole-3,4′-piperidin]-2-one]	155 nM
O=C1Nc2ccc(Cl)cc2C12CCN(CCOc1ccc(S(=O)(=O)C3(CO)CC3)cc1)CC2 [Compound 225, 5-chloro-1′-[2-(4-{[1-(hydroxymethyl)cyclopropyl]sulfonyl}phenoxy)ethyl]-1,2-dihydrospiro[indole-3,4′-piperidin]-2-one]	51.7 nM
CN1C(=O)CCc2cc(OCCN3CCC4(CC3)C(=O)Nc3ccc(Cl)cc34)ccc21 [Compound 27, 5-chloro-1′-[2-[(1-methyl-2-oxo-3,4-dihydroquinolin-6-yl)oxy]ethyl]spiro[indoline-3,4′-piperidine]-2-one]	186 nM
O=C(c1ccc(OCCN2CCC3(CC2)C(=O)Nc2ccc(Cl)cc23)cc1F)N1CCC1 [Compound 234, 1′-{2-[4-(azetidine-1-carbonyl)-3-fluorophenoxy]ethyl}-5-chloro-1,2-dihydrospiro[indole-3,4′-piperidin]-2-one]	233 nM
O=C1Nc2ccc(Cl)cc2C12CCN(CCOc1ccc3c(c1)CCS3(=O)=O)CC2 [Compound 196, 5-(2-{5-chloro-2-oxo-1,2-dihydrospiro[indole-3,4′-piperidin]-1′-yl}ethoxy)-2,3-dihydro-1λ^6-benzothiophene-1,1-dione]	207 nM
CS(=O)(=O)c1ccc(OCCN2CCCC3(CC2)C(=O)Nc2ccccc23)cc1 (stereo not shown) [Compound 26, 1-(2-(4-(methylsulfonyl)phenoxy)ethyl)spiro[azepane-4,3′-indolin]-2′-one]	~10900 nM
CS(=O)(=O)c1ccc(OCCN2CCC3(CC2)C(=O)N(CCO)c2ccc(C#N)cc23)cc1C(F)F [Compound 266, 1′-{2-[3-(difluoromethyl)-4-methanesulfonylphenoxy]ethyl}-1-(2-hydroxyethyl)-2-oxo-1,2-dihydrospiro[indole-3,4′-piperidine]-5-carbonitrile]	353 nM
CN1C(=O)C2(CCN(CCOc3ccc(C4(S(C)(=O)=O)COC4)cc3)CC2)c2cc(C#N)ccc21 [Compound 251, 1′-{2-[4-(3-methanesulfonyloxetan-3-yl)phenoxy]ethyl}-1-methyl-2-oxo-1,2-dihydrospiro[indole-3,4′-piperidine]-5-carbonitrile]	~323 nM
CS(=O)(=O)c1ccc(OCCN2CCC3(CC2)C(=O)Nc2ccc(Cl)cc23)cc1C(F)CF (single isomer, unassigned) [Compound 218, 5-chloro-1′-(2-{3-[(1S or 1R)-1,2-difluoroethyl]-4-methanesulfonylphenoxy}ethyl)-1,2-dihydrospiro[indole-3,4′-piperidin]-2-one]	125 nM
CN(C)C(=O)c1ccc(OCCN2CCC3(CC2)C(=O)Nc2ccc(Cl)cc23)cc1F [Compound 230, 4-(2-{5-chloro-2-oxo-1,2-dihydrospiro[indole-3,4′-piperidin]-1′-yl}ethoxy)-2-fluoro-N,N-dimethylbenzamide]	325 nM
